{"source": "patent US20260085068A1", "about": "“A NOVEL CRYSTALLINE FORM OF PRITELIVIR” (Assembly Biosciences, Inc., priority 2022, published 2026)", "test": "Solubility determination in aqueous vehicle (0.9% NaCl and 0.5% polysorbate 80), filtrate analyzed by HPLC", "assay_type": "physicochemical", "experimental": "Sample preparation: excess Type 8 was added to the vehicle containing 0.9% NaCl and 0.5% polysorbate 80 to achieve ˜3 mg/mL suspension. The mixture was sonicated for 15 minutes, then agitated at 500 rpm at room temperature. At 24 hours, the mixture was filtrated, and filtrate was analyzed by HPLC to determine the solubility. • Instrument: Agilent 1260 • Column: ACE ultracore super C18 (100 mm*4.6 mm*2.5 μm) (P/N: CORE-25A-1046U) • Wavelength: 234 nm • Column Temperature: 20° C. • Column Flow: 1.0 mL/min • Acquisition time: 25 min • Injection volume: 5 μL • Retention time: ˜14 min • Mobile Phase A: 5 mM (NH4)2HPO4 and 5 mM of NH4H2PO4 in H2O • Mobile Phase B: ACN [table] The solubility of Form C (hemihydrate as disclosed in WO 2018/096170) was determined in the same media used to determine the solubility of Type 8 as described above. Sample preparation: excess Form C was added to the vehicle containing 0.9% NaCl and 0.5% polysorbate 80. The mixture was sonicated for 15 minutes, then agitated at 500 rpm at room temperature. At 24 hours, the mixture was filtrated, and filtrate was analyzed by HPLC to determine the solubility."}
{"smiles": "Cc1nc(N(C)C(=O)Cc2ccc(-c3ccccn3)cc2)sc1S(N)(=O)=O", "note": "[Type 8, N-methyl-N-(4-methyl-5-sulfamoylthiazol-2-yl)-2-(4-(pyridin-2-yl)phenyl) acetamide]", "values": [{"measurement": "solubility at 24 h", "setting": "aqueous vehicle (0.9% NaCl and 0.5% polysorbate 80), aqueous with cosolvent or surfactant or cyclodextrin, thermodynamic from solid, RT, 0.9% NaCl and 0.5% polysorbate 80", "result": "~70.7", "unit": "µg/mL"}, {"measurement": "solubility", "setting": "room temperature, aqueous media containing 0.9% NaCl and 0.5% polysorbate 80, at 24 hours", "result": "around 70.7 μg/mL"}]}
